Two molecules from patent US20120238488A1, “COMPOUNDS AND METHODS FOR TREATING NEOPLASIA” (priority 2009, published 2012) can be followed below.

Each structure is given as a SMILES string.

The test system of one series is UAC032 (Melanoma). Put plainly: SRB assay, UAC032. The series is classed as cell-based, human. To be noted: 48 h. On the procedure:
(§1) SRB assays were performed according to standard National Cancer Institute Guidelines. Briefly, human tumor cells from different cancer panels were seeded into 96 well plates in 100 μL (plating densities ranging from 5-40,000 cells/well depending on the doubling time of individual cell lines) in serum-containing media for twenty-four hours prior to the addition of the compounds to be assayed. After 24 hours, one plate of each cell line was fixed in situ with trichloroacetic acid (TCA). The fixed slides were used to determine the cell population for each cell line at the time of drug addition (Tz). Each compound to be tested was solubilized in DMSO and the desired concentration was then added to the medium and diluted serially 1:10 to provide a total of five or ten drug concentrations plus control (in a final volume of 200 μL). The starting dose before any dilution was 100 uM for all compounds.
(§2) Following drug addition, each culture was incubated for forty-eight hours. The assay was terminated with the addition of cold TCA. The supernatant was discarded, and the plates were washed with tap water and air dried. Sulforhodamine B (SRB) solution was then added to each well. After staining, the bound stain was solubilized and the absorbance was read on an automated plate reader at a wavelength of 515 nm.
(§3) Using the absorbance measurements [time zero, (Tz), control growth, (C), and test growth in the presence of drug at the ten concentration levels (Ti)], the percentage growth was calculated at each of the drug concentrations levels. Percentage growth inhibition was calculated as:
(§4) [(Ti−Tz)/(C−Tz)]×100 for concentrations for which Ti>/=Tz […]
(§5) Three dose response parameters were calculated for each experimental agent. […] The drug concentration resulting in total growth inhibition (TGI) was calculated from Ti=Tz. […]
(§6) Values were calculated for each of these three parameters when the level of activity was reached; however, if the effect was not reached or was exceeded, the value for that parameter was expressed as greater or less than the maximum or minimum concentration tested. […]
(Sulforhodamine B stains cellular protein and so reports cell mass.)

A further series concerns SF295 (CNS). The series can be described thus: SRB assay, SF295. The series is classed as cell-based, human. On the procedure:
as §1, §2, §3, §4, §5, §6

The subject of series [1] is PC-3 xenografts (prostate adenocarcinoma, grade IV). Put plainly: PC-3 xenograft anti-tumor activity. On the procedure:
Compound 56 was tested for its anti-tumor activity in PC-3 and A549 xenografts. To generate xenografts in mice, exponentially growing cultures of approximately 10^6 PC-3 cells (prostate adenocarcinoma, grade IV) or A549 cells (lung carcinoma) were injected subcutaneously according to the British practice of bilateral trocar implants at the axillary region of 6-8 weeks old male (PC-3 cells) or female (A549 cells) Nod/Scid mice. The two tumor cell inoculums were added together for each mouse, thus producing a tumor burden per mouse value for data analysis. The advantage of the British system is reduced mouse-to-mouse variability and, thus, the ability to decrease the total number of animals per group, with five or six being sufficient for accurate data analysis of tumor response and evaluation of toxicities.
Tumor volume was calculated according to the formula [(axb2)/2], where a=length and b=width of the tumor as measured with a vernier's caliper (measurements were performed twice a week). All administrations were intraperitoneal. Treated animals received a single injection according to the schedule described for each study (see below). In addition to tumor volume, the parameter, % DT/DC, was calculated, where DT=T−Do and DC=C−Do (Do is the average tumor volume at the beginning of the treatment; T and C are the volumes of treated and untreated tumors, respectively, at a specified day). Optimal DT/DC value was used as a measure of drug activity. Losses of weight, neurological disorders and behavioral and dietary changes were also recorded as indicators of toxicity (side effects). The experiment was terminated when tumor size in untreated animals reached a volume of about 1000-1500 mm^3. All animals were treated according to Greek laws (2015/92), guidelines of the European Union and the European council (86/609 and ETS123, respectively), and Compliance with Standards for Human Care and Use of Laboratory Animals, NIH, USA (Assurance No. A5736-01).
In order to develop PC-3 xenografts, male mice 6-8 weeks old were inoculated bilateral at the two axilla regions at day 0.
Compound 56 was administered intraperitoneallly at the following dpis: d13, d14, d15, d16, d17, d20, d21, d22, d23, d24, d27, d28, 29, d30.

For the molecule `C[C@]12CCC(=NOCCN)C=C1CCC1C2CC[C@]2(C)C(=O)CCC12` (stereo partly drawn) [Compound 12, (10R,13S)-3-(2-aminoethoxyimino)-10,13-dimethyl-2,3,7,8,9,10,11,12,13,14,15,16-dodecahydro-1H-cyclopenta[a]phenanthren-17(6H)-one], the CC50 with UAC032 (Melanoma) (Homo sapiens, read-out: LC50) came to 49.5 µM; in the series with SF295 (CNS) (Homo sapiens, SF-295, 48 h, read-out: LC50) it was 9.04 µM. The GI50 (in general, the concentration that inhibits growth by half) in the series with UAC032 (Melanoma) (Homo sapiens, UAC032, SRB) amounted to 4.57 µM; with SF295 (CNS) (Homo sapiens, SF-295, SF295, SRB, 48 h) it was 3.26 µM. The total growth inhibition concentration (TGI) – broadly, the concentration giving total growth inhibition – worked out at 7.64 µM in the series on UAC032 (Melanoma) (UAC032, SRB) and 6.15 µM in the series with SF295 (CNS) (SF295, SRB, 48 h).

As to `C[C@]12CCC(=NOC3CCNC3)CC1CCC1C2CC[C@]2(C)C(=O)CCC12` (stereo partly drawn) [Compound 56, (10S,13S)-10,13-dimethyl-3-(pyrrolidin-3-yloxyimino)tetradecahydro-1H-cyclopenta[a]phenanthren-17(2H)-one], the “post mortem analysis on excised PC-3 tumors: tumor growth inhibition” value in series [1] (17 mgk intraperitoneal) is recorded as “statistical significant tumor growth inhibition”. The “toxicity (body weight, deaths)” value in series [1] (PC-3 xenograft mice, compound 56 17 mgk, digoxin 2 mgk, intraperitoneal) was “not toxic”. Also, the “metastases versus control group (post mortem)” value in series [1] (PC-3 xenografts, 17 mgk intraperitoneal) was “suppression of bone lymph node and front axilla metastases”. In addition, in series [1] (PC-3 xenografts, 17 mgk intraperitoneal, day 34, p=6×10^−6), the “optimal DT/DC” value worked out at 48.71%. For the same molecule, the “anti-tumor activity in PC-3 xenografts (FIG. 2A)” value in series [1] (mouse, in vivo) is given as “has anti-tumor activities”.
